For 3 compounds, Kd results are on record in ChEMBL document CHEMBL4028891, “X-ray Characterization and Structure-Based Optimization of Striatal-Enriched Protein Tyrosine Phosphatase Inhibitors” (J Med Chem, 2017).

The target in the experiment is T1, Tyrosine-protein phosphatase non-receptor type 5 (Homo sapiens, UniProt P54829).
T1 sequence (P54829 whole entry): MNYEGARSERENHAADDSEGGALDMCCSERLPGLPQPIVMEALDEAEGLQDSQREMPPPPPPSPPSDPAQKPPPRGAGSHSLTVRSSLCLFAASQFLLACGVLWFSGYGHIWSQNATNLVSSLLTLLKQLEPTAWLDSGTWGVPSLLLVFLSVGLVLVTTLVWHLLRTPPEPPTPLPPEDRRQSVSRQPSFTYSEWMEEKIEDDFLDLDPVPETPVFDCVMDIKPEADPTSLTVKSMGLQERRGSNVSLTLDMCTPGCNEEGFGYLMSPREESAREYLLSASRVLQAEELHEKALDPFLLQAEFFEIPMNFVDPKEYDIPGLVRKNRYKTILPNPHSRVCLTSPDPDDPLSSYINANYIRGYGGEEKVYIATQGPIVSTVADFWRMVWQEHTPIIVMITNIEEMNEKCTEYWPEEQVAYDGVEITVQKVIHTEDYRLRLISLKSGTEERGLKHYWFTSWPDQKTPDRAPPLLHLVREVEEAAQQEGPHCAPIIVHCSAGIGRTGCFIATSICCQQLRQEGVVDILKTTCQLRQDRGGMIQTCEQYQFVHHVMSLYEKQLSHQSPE
Nature of the experiment: Binding affinity to 6His-tagged STEP phosphatase domain (258 to 539 residues) (unknown origin) expressed in Escherichia coli BL21 Gold (DE3) after 90 secs at 30 degC by isothermal titration calorimetry assay. A general note: In ITC the heat of successive injections is recorded.

Structures are written as SMILES.

Turning to `O=P(O)(O)C(F)(F)c1cccc(-c2cccc(C3CCCCC3)c2O)c1`, the Kd stood at 70.4 µM. `O=P(O)(O)[C@H](O)c1ccc(-c2cccc([C@H](O)c3ccc(Cl)c(Cl)c3)c2)cc1` gave a Kd of 31.4 µM. The compound `O=P(O)(O)[C@H](O)c1ccc(-c2cccc([C@@H](O)c3ccc(Cl)c(Cl)c3)c2)cc1` had a Kd of 27.2 µM.

As usually defined, the Kd is the constant that tells how readily two partners part at equilibrium. Read a low Kd as tighter binding.
